Data reported in ChEMBL document CHEMBL2331441, “Phosphodiesterase inhibitors. Part 5: hybrid PDE3/4 inhibitors as dual bronchorelaxant/anti-inflammatory agents for inhaled administration” (Bioorg Med Chem Lett, 2013).

Assays:
[1] = target: T1, 3',5'-cyclic-AMP phosphodiesterase 4B (Homo sapiens, UniProt Q07343); test: Inhibition of PDE4B (unknown origin) by radiochemical assay
[2] = system: Rattus norvegicus; test: Inhibition of LPS-induced leukocyte influx into rat lung at 100 ug/kg administered intratracheally 3 hrs prior LPS challenge; assay type: functional; conditions: inhaled or nasal
[3] = system: Cavia porcellus; test: Bronchodilatory activity in guinea pig assessed as inhibition of histamine-induced bronchoconstriction at 0.1 mg/kg, iv; assay type: functional
[4] = target: cGMP-inhibited 3',5'-cyclic phosphodiesterase 3A (Homo sapiens, UniProt Q14432); test: Inhibition of PDE3A (unknown origin) by radiochemical assay
[5] = target: T1, 3',5'-cyclic-AMP phosphodiesterase 4B; test: Ratio of IC50 for KCA-1450 to compound IC50 for PDE4B (unknown origin) by radiochemical assay
[6] = species: Homo sapiens; test: Selectivity ratio of IC50 for PDE3A (unknown origin) to IC50 for PDE4B (unknown origin)

Chain of cGMP-inhibited 3',5'-cyclic phosphodiesterase 3A (Q14432 whole entry): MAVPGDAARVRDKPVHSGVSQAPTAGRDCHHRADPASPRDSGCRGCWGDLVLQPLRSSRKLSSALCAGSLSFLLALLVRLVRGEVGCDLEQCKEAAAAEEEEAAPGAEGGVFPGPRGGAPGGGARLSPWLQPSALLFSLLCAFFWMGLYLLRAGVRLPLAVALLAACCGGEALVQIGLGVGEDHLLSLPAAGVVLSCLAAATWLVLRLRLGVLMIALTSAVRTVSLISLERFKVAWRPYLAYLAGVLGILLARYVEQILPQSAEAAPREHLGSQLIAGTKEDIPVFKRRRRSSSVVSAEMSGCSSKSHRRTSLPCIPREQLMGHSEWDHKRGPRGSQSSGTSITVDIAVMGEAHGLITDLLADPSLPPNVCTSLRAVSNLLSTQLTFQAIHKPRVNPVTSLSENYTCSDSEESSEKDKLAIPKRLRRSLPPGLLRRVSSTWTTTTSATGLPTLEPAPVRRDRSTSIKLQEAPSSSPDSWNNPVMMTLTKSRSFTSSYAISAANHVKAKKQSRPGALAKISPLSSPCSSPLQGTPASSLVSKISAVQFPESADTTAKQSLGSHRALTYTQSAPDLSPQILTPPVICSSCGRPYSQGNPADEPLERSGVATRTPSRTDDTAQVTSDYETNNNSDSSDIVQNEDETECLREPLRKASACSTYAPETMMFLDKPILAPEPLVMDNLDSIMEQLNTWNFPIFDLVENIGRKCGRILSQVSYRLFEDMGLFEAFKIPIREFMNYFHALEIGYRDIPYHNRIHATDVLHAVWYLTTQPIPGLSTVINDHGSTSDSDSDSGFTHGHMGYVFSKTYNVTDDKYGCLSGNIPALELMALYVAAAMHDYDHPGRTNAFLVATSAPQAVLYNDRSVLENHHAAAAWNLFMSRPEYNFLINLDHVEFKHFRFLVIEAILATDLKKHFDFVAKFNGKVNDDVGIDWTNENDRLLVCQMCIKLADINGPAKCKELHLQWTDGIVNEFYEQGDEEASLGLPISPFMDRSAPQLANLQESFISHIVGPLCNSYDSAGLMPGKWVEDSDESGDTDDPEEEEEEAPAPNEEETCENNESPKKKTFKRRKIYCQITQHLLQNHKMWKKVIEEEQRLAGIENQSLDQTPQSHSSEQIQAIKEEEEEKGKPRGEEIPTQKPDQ
T1 sequence (Q07343 whole entry): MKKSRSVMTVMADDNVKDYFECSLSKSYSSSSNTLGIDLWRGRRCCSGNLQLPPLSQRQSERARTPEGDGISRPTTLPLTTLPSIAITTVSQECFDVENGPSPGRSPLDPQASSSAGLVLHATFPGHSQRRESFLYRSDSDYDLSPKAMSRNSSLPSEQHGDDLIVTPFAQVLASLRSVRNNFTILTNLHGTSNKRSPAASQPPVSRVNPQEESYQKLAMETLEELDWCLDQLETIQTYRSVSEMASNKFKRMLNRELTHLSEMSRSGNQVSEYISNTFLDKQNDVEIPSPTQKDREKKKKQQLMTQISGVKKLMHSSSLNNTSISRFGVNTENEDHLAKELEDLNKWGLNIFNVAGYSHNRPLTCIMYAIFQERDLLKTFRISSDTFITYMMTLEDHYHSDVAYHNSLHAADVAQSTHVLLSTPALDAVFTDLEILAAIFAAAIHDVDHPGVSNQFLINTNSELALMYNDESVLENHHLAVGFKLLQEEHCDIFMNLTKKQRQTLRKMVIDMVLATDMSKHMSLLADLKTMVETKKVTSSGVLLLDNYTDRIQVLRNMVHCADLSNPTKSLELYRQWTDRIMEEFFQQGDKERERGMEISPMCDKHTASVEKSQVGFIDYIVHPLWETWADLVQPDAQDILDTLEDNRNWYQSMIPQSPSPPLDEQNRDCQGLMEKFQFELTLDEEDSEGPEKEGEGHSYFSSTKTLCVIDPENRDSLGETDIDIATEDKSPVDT

`COc1ccc(C2=NN(CCCCOc3ccc(C4=NNC(=O)CC4)c(F)c3F)C(=O)C2(C)C)n2cc(C(F)(F)F)nc12` gave an IC50 [1] of 6.7 nM, an inhibition in vivo at 0.1 mg/kg [2] of 56% and an inhibition in vivo at 0.1 mg/kg [3] of 87%. It also gave an IC50 [4] of 5 nM.
Work on `COc1ccc(C2=NN(CCCCOc3ccc(C4=NNC(=O)C4(C)C)cc3)C(=O)CC2C)c2cc(C(F)(F)F)nn12` (stereo not given) yielded an IC50 [1] of 0.5 nM and an IC50 [4] of 270 nM.
In the case of `COc1ccc(C2=NN(CCCCOc3ccc(C4=NNC(=O)C4(C)C)c(F)c3F)C(=O)C2(C)C)c2sc(C(F)(F)F)nc12`, the IC50 [1] is reported as 0.38 nM, the inhibition in vivo at 0.1 mg/kg [3] is reported as 36% and the IC50 [4] is reported as 63 nM.
Compound `COc1ccc(C2=NN(CCCCCOc3ccc(C4=NNC(=O)CC4C)cc3)C(=O)CC2C)c2cc(C(F)(F)F)nn12` (stereo not given) has an IC50 [1] of 0.2 nM, a Ratio IC50 [5] of 23 and an IC50 [4] of 72 nM.
`COc1ccc(C2=NN(CCCCOc3ccc(C4=NNC(=O)C4(C)C)c(F)c3F)C(=O)CC2C)c2cc(C(F)(F)F)nn12` (stereo not given) showed an IC50 [1] of 3.1 nM and an IC50 [4] of 15 nM.
In the case of `COc1ccc(C2=NN(CCCCOc3ccc(C4=NNC(=O)CC4)cc3)C(=O)CC2C)c2cc(C(F)(F)F)nn12` (stereo not given), the IC50 [1] is reported as 0.1 nM and the IC50 [4] is reported as 360 nM.
`COc1ccc(C2=NN(CCCCOc3cccc(C4=NNC(=O)C4(C)C)c3)C(=O)CC2C)c2cc(C(F)(F)F)nn12` (stereo not given) was tested, and the IC50 [1] was 0.064 nM, the Ratio IC50 [6] was 10000 and the IC50 [4] was 1730 nM.
Compound `CCc1cc2c(-c3ccc(=O)n(CCCCOc4ccc(C5=NNC(=O)CC5C)cc4)n3)ccc(OC)n2n1` (stereo not given) has an IC50 [1] of 20 nM, an inhibition in vivo at 0.1 mg/kg [3] of 71% and an IC50 [4] of 2.7 nM.
Compound `CCc1cc2c(C3=NN(CCCOc4ccc(C5=NNC(=O)CC5C)cc4)C(=O)CC3C)ccc(OC)n2n1` (stereo not given) has an IC50 [1] of 5.9 nM and an IC50 [4] of 11 nM.
Compound `COc1ccc(C2=NN(CCCCOc3ccc(C4=NNC(=O)CC4)c(F)c3F)C(=O)CC2C)c2cc(C(F)(F)F)nn12` (stereo not given) has an IC50 [1] of 2.2 nM and an IC50 [4] of 5.1 nM.
Compound `COc1ccc(C2=NN(CCCCOc3ccc(C4=NNC(=O)CC4C)cc3)C(=O)CC2C)c2cc(C(F)(F)F)nn12` (stereo not given) has an IC50 [1] of 0.3 nM, a Ratio IC50 [5] of 23 and an IC50 [4] of 15 nM.
Work on `COc1ccc(C2=NN(CCCCOc3ccc(C4=NNC(=O)CC4)c(F)c3F)C(=O)C2(C)C)c2sc(C(F)(F)F)nc12` yielded an IC50 [1] of 0.77 nM, an inhibition in vivo at 0.1 mg/kg [2] of 51% and an inhibition in vivo at 0.1 mg/kg [3] of 96%. For the same compound, the IC50 [4] was 6.9 nM.
`COc1ccc(C2=NN(CCCCOc3ccc(C4=NNC(=O)C4(C)C)cc3F)C(=O)CC2C)c2cc(C(F)(F)F)nn12` (stereo not given) gave an IC50 [1] of 1.4 nM and an IC50 [4] of 1520 nM.
`COc1ccc(C2=NNC(=O)C[C@@H]2C)c2cc(C(F)(F)F)nn12` was tested, and the IC50 [1] was 42 nM and the IC50 [4] was 360 nM.
Compound `CCc1cc2c(C3=NN(CCCCOc4ccc(C5=NNC(=O)CC5C)cc4)C(=O)C3(C)C)ccc(OC)n2n1` (stereo not given) has an IC50 [1] of 0.6 nM, an inhibition in vivo at 0.1 mg/kg [3] of 92% and an IC50 [4] of 1.7 nM.
`COc1ccc(C2=NN(CCCCOc3cccc(C4=NNC(=O)CC4C)c3)C(=O)CC2C)c2cc(C(F)(F)F)nn12` (stereo not given) was tested, and the IC50 [1] was 0.5 nM and the IC50 [4] was 590 nM.
Compound `COc1ccc(C2=NN(CCCOc3ccc(C4=NNC(=O)CC4C)cc3)C(=O)CC2C)c2cc(C(F)(F)F)nn12` (stereo not given) has an IC50 [1] of 3 nM, a Ratio IC50 [5] of 23 and an IC50 [4] of 140 nM.
Work on `COc1ccc(C2=NN(CCCCOc3ccc(-c4n[nH]c(=O)cc4C)cc3)C(=O)CC2C)c2cc(C(F)(F)F)nn12` (stereo not given) yielded an IC50 [1] of 6 nM and an IC50 [4] of 40000 nM.
Work on `COc1ccc(C2=NNC(=O)CC2C)c2cc(C(F)(F)F)nn12` (racemic) yielded an IC50 [1] of 70 nM and an IC50 [4] of 2380 nM.
With `CCc1cc2c(C3=NN(CCCCOc4ccc(C5=NNC(=O)CC5C)cc4)C(=O)CC3C)ccc(OC)n2n1` (stereo not given) the IC50 [1] was 1.7 nM, the inhibition in vivo at 0.1 mg/kg [3] was 96% and the IC50 [4] was 1.2 nM.
`COc1ccc(C2=NN(CCOc3ccc(C4=NNC(=O)CC4C)cc3)C(=O)CC2C)c2cc(C(F)(F)F)nn12` (stereo not given) was tested, and the IC50 [1] was 0.66 nM, the Ratio IC50 [5] was 23 and the IC50 [4] was 130 nM.
`COc1ccc(C2=NN(CCCCOc3ccc(C4=NNC(=O)C4(C)C)c(F)c3)C(=O)CC2C)c2cc(C(F)(F)F)nn12` (stereo not given) was tested, and the IC50 [1] was 0.3 nM and the IC50 [4] was 58 nM.
`CCc1cc2c(C3=NN(CCCCOc4ccc(C5=NNC(=O)CC5C)cc4)C(=O)CC3)ccc(OC)n2n1` (stereo not given) showed an IC50 [1] of 2.7 nM, an inhibition in vivo at 0.1 mg/kg [3] of 28% and an IC50 [4] of 0.27 nM.
Work on `COc1ccc(C2=NN(CCCCOc3ccc(C4=NNC(=O)C4(C)C)c(F)c3F)C(=O)C2(C)C)n2cc(C(F)(F)F)nc12` yielded an IC50 [1] of 3.2 nM, an inhibition in vivo at 0.1 mg/kg [3] of 76% and an IC50 [4] of 40 nM.
For `COc1ccc(C2=NN(CCCCOc3ccc(-c4ccc(=O)[nH]n4)cc3)C(=O)CC2C)c2cc(C(F)(F)F)nn12` (stereo not given), the IC50 [1] was 20 nM and the IC50 [4] was 38000 nM.
